The target in experiment [1] is Serine/threonine-protein kinase Nek6 (Homo sapiens) (UniProt Q9HC98). Put plainly: Inhibition of NEK6 (unknown origin) at 1 uM relative to control.
For experiment [2], the target named is T1, Serine/threonine-protein kinase Nek2 (Homo sapiens) (UniProt P51955).
T1 sequence (whole entry): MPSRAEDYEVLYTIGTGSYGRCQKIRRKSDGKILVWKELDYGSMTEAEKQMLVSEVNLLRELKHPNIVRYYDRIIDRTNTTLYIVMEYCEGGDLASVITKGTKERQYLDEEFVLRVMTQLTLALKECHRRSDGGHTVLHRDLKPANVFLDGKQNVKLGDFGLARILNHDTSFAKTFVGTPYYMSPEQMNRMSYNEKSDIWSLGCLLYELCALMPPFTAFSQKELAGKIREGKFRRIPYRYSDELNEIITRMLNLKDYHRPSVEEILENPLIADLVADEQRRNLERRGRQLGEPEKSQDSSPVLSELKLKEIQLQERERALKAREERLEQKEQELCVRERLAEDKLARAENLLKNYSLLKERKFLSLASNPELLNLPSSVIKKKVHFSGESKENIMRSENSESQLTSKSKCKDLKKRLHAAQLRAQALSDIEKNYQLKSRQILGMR
As to the kind of experiment: Inhibition of NEK2 (unknown origin) at 1 uM relative to control.

For experiment [3], the target named is Serine/threonine-protein kinase Nek7 (Homo sapiens) (UniProt Q8TDX7). As to the kind of experiment: Inhibition of NEK7 (unknown origin) at 1 uM relative to control.
The target of experiment [4] is T2, Serine/threonine-protein kinase Nek11 (Homo sapiens) (UniProt Q8NG66).
T2 sequence (whole entry): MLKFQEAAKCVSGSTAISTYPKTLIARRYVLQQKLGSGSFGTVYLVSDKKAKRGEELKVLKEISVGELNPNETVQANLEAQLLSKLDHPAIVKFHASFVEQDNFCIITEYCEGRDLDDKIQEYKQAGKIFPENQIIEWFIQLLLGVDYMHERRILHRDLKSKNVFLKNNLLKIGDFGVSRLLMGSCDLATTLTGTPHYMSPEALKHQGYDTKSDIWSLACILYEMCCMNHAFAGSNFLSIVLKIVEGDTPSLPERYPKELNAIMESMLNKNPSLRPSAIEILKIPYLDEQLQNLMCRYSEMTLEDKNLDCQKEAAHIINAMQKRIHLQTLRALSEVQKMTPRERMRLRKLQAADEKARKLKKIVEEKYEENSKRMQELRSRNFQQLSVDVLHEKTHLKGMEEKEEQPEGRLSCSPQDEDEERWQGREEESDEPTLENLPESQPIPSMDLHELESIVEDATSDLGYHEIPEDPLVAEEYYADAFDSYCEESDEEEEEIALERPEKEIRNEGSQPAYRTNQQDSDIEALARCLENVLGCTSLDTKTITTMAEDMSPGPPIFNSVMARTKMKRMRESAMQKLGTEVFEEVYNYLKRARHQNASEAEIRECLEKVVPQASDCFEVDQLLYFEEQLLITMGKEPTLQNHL
Put plainly: Inhibition of NEK11 (unknown origin) at 1 uM relative to control.

Experiment [5] has as its target T3, Serine/threonine-protein kinase Nek3 (Homo sapiens) (UniProt P51956).
T3 sequence (whole entry): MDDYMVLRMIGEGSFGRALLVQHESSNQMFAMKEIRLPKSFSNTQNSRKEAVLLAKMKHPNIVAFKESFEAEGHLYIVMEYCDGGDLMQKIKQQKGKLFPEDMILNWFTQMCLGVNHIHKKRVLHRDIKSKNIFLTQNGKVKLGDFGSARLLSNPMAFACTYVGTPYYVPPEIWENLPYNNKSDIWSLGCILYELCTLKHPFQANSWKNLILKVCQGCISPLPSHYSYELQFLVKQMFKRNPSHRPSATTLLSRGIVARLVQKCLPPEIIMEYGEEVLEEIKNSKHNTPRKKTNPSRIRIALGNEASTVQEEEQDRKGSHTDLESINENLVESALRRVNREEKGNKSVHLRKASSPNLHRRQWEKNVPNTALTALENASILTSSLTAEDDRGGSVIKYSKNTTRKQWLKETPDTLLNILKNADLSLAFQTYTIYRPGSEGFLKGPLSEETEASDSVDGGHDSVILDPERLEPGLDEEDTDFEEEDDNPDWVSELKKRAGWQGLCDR
Put plainly: Inhibition of NEK3 (unknown origin) at 1 uM relative to control.

Experiment [6] addresses T4, Serine/threonine-protein kinase Nek5 (Homo sapiens) (UniProt Q6P3R8).
T4 sequence (whole entry): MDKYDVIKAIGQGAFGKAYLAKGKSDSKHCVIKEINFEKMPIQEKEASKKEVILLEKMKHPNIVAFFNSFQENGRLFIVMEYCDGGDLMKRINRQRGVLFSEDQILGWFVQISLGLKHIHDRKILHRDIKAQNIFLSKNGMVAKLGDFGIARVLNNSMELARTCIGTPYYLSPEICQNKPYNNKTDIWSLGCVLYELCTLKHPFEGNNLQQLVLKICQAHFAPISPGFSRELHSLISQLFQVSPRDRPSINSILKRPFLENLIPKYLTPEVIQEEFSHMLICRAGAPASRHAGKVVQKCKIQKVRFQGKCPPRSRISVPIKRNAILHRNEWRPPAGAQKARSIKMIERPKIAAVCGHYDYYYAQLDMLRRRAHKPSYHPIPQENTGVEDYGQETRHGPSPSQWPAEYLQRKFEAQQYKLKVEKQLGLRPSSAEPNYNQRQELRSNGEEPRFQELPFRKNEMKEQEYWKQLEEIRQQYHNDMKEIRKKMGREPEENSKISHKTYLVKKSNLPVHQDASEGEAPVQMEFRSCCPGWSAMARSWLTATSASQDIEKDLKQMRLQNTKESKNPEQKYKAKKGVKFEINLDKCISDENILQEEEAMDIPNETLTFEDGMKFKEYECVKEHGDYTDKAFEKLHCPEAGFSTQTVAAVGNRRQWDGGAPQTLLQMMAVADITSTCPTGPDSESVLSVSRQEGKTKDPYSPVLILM
As to the kind of experiment: Inhibition of NEK5 (unknown origin) at 1 uM relative to control.

SMILES strings stand for the structures. Where “and” joins values, the source holds several entries; their conditions need not be identical. Identical values can stand only once.

Chain of Serine/threonine-protein kinase Nek6 (Homo sapiens) (Q9HC98 whole entry): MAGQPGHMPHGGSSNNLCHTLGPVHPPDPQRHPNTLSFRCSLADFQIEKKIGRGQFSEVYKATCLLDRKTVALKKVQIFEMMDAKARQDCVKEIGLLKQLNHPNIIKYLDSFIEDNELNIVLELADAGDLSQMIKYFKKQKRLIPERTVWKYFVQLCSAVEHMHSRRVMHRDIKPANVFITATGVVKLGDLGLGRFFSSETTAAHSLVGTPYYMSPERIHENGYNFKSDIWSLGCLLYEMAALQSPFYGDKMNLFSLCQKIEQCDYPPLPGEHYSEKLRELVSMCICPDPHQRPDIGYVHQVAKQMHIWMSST
Chain of Serine/threonine-protein kinase Nek7 (Homo sapiens) (Q8TDX7 whole entry, looked up): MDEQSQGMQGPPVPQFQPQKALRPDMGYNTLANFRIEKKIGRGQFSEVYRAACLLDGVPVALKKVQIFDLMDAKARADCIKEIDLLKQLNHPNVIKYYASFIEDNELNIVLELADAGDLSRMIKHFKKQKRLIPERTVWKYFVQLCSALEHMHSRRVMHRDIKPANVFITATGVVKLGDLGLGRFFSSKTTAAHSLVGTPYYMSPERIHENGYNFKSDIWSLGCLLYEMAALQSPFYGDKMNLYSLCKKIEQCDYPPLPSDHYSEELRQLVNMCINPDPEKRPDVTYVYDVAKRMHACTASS

Turning to `COc1cccc(C2=C(Nc3ccc(Cl)c(C(=O)O)c3)C(=O)NC2=O)c1`, the inhibition – broadly, the drop in the measured response relative to a control, in per cent – amounted to 0% in experiment [1]; 0% in experiment [2]; 0% in experiment [3]; 27% in experiment [4]; 7% in experiment [5]; 3% in experiment [6].
Take `COc1cc(Nc2ncc3c(C)nc(-c4cc5ccccc5[nH]4)n3n2)cc(OC)c1OC`: the inhibition in experiment [1] was 70%; in experiment [2] it was 70%; in experiment [3], 70%; in experiment [4], 86%; in experiment [5] it was 89%; in experiment [6], 93.1% and 99%.
Turning to `Cn1cc(-c2ccc3c(c2)CCN3C(=O)Cc2cc(F)cc(C(F)(F)F)c2)c2c(N)ncnc21`, the inhibition in experiment [1] amounted to 6%; in experiment [2], 18%; in experiment [3] it was 0%; in experiment [4] it was 8%; in experiment [5] it was 0%; in experiment [6], 0%.
Regarding `COc1cccc(CC(=O)N2CCc3cc(-c4cn(C)c5ncnc(N)c45)ccc32)c1`, the inhibition amounted to 18% in experiment [1]; 74% in experiment [2]; 11% in experiment [3]; 49% in experiment [4]; 4% in experiment [5]; 24% in experiment [6].
With `CC(C)c1nc(-c2cccc(NS(=O)(=O)c3ccccc3)c2)c(-c2ccnc(Nc3ccc4c(c3)CN(C)CC4)n2)s1`, the inhibition in experiment [1] was 100%; in experiment [2], 66%; in experiment [3] it was 100%; in experiment [4] it was 2.3%; in experiment [5] it was 73%; in experiment [6], 100%.
As for `COc1ccc(C2=C(Nc3cccc(C(=O)O)c3)C(=O)NC2=O)cc1`, the inhibition was 13% in experiment [1]; 10% in experiment [2]; 28% in experiment [3]; 30% in experiment [4]; 31% in experiment [5]; 0% in experiment [6].
As to `Nc1nccc2scc(-c3ccc4c(c3)CCN4C(=O)Cc3ccccc3)c12`, the inhibition in experiment [1] came out at 0%; in experiment [2], 4%; in experiment [3], 0%; in experiment [4] it was 0%; in experiment [5] it was 10%; in experiment [6], 14%.
As to `Nc1nccc2scc(-c3ccc4c(c3)CCN4C(=O)Cc3cc(F)ccc3F)c12`, the inhibition in experiment [1] was found to be 0%; in experiment [2], 7%; in experiment [3], 0%; in experiment [4] it was 9%; in experiment [5], 0%; in experiment [6], 6%.
Regarding `Cn1cc(-c2ccc3c(c2)CCN3C(=O)Cc2cc(F)cc(F)c2F)c2c(N)ncnc21`, the inhibition in experiment [1] is 18%; in experiment [2], 84%; in experiment [3] it was 0%; in experiment [4], 38%; in experiment [5], 0%; in experiment [6] it was 8%.
Turning to `Cn1cc(-c2cnc(N)c3c(-c4ccc5c(c4)CCN5C(=O)Cc4ccccc4)csc23)cn1`, the inhibition in experiment [1] is 0%; in experiment [2], 28%; in experiment [3], 0%; in experiment [4] it was 47%; in experiment [5], 1%; in experiment [6] it was 5%.
As to `Cc1ccccc1CC(=O)N1CCc2cc(-c3cn(C)c4ncnc(N)c34)ccc21`, the inhibition was found to be 0% in experiment [1]; 97% in experiment [2]; 0% in experiment [3]; 58% in experiment [4]; 0% in experiment [5]; 34% in experiment [6].

These data come from ChEMBL document CHEMBL5252509, “In depth analysis of kinase cross screening data to identify chemical starting points for inhibition of the Nek family of kinases” (Medchemcomm, 2018).
